The values below come from publication PMC4884629 (Toxicology and applied pharmacology, 2013).

The target in this assay is HERG potassium channel (Homo sapiens, UniProt Q12809). The experiment in a line: whole-cell patch clamp, HERG tail current in CHO cells. It counts as cell-based. Background: In patch-clamp work, channel activity is measured electrically.
HERG potassium channel, sequence (Q12809 whole entry): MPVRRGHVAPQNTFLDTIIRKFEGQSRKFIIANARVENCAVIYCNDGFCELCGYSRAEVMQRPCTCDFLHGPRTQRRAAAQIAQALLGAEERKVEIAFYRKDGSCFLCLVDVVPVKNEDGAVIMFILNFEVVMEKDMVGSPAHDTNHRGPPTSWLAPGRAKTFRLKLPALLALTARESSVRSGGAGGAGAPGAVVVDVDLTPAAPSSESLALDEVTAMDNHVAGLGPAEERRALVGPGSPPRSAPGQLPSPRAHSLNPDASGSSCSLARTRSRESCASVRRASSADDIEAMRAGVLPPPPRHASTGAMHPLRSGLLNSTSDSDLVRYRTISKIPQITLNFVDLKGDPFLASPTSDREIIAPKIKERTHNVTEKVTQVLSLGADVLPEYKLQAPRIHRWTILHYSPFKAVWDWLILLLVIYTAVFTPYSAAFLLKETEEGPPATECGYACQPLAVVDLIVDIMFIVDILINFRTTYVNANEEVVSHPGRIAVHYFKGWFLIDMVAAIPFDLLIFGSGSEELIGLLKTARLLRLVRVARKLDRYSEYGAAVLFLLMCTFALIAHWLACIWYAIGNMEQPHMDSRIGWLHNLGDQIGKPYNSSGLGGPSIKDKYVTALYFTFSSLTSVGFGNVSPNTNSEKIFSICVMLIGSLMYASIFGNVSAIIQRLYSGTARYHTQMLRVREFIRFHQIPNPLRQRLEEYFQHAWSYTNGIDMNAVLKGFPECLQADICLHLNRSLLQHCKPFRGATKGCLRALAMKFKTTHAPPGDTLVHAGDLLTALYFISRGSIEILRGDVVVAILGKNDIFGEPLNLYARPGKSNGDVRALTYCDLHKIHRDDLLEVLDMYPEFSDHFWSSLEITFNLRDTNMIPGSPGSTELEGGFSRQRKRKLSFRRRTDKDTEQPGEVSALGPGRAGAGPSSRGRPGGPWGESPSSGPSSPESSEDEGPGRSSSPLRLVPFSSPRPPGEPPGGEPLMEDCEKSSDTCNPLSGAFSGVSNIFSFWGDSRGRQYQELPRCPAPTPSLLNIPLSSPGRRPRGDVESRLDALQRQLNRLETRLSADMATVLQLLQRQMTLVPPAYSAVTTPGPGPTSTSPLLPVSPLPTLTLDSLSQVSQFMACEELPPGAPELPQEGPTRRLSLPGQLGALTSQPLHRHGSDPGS

For orientation: IC50 means the concentration at which inhibition is half-maximal. Read a low IC50 as higher potency. `CCCCCCCC[N+](CCCCCCCC)(CCCCCCCC)CCCCCCCC` [TB, tetra-n-octylammonium bromide]: half-maximal inhibition (IC50) required 4 nM.
